Measurements reported in patent publication US20100260818A1, “STABLE MEDICATED CHEWING GUM COMPRISING CYCLODEXTRIN INCLUSION COMPLEX” (FERTIN PHARMA A/S, priority 2007, published 2010).
“And” between values parts separate entries of the source, which are not always exact repeats. Equal entries are not always repeated.

Key:
[1] = β-cyclodextrin content of filtrates of cetirizine.2HCL/β-cyclodextrin reaction mixture (HPLC, ELSD); type: physicochemical
[2] = Suspension homogeneity (visual) and chemical stability of cetirizine and β-cyclodextrin suspension with hydroxy acids, salts, NaOH; details: for Suspension homogeneity compared to control: visual
Procedure: The effect of different hydroxy acids, hydroxy acid salts and sodium hydroxide on the suspension homogeneity and also on the chemical stability of cetirizine in the suspensions was studied.
The cetirizine and β-cyclodextrin suspensions were prepared by stirring aqueous cetirizine solution with cyclodextrin and with the additives.

[3] = Powder sample storage stability, impurities by HPLC (Example 9); type: physicochemical; details: 34 days, 40 degrees C., 75% relative humidity; cyclodextrin and cetirizine uncomplexed in same formulation
Procedure: The four samples were stored in capped 50 mL Polyethylene Duma™ containers (Superfos Pharma Pack, Denmark) at 40 degrees C. and 75% relative humidity for 34 days, and were subsequently analysed by HPLC.

[4] = molar ratio CTZ:Additive not calculated

## O=C(O)CC(O)(CC(=O)O)C(=O)O [Citric acid]
[1]; molar ratio CTZ:Additive 1:1
  BCD content in the filtrate: 154 mg/mL
[2]; molar ratio CTZ:Additive 1:1
  Suspension homogeneity compared to control: no significant change

## O=C([O-])C(O)C(O)C(=O)[O-].[K+].[Na+] (stereo not drawn) [K—Na-tartarate, Potassium-sodium-tartarate]
[1]; molar ratio CTZ:Additive 1:5
  BCD content in the filtrate: 120 mg/mL
[2]; molar ratio CTZ:Additive 1:5
  Suspension homogeneity compared to control: better

## O=C([O-])CC(O)(CC(=O)[O-])C(=O)[O-].[Na+].[Na+].[Na+] [Na-citrate, Tri-sodium citrate]
[1]; molar ratio CTZ:Additive 1:4
  BCD content in the filtrate: 135 mg/mL
[2]; effective amount of additive 3-6% by weight
  Chemical degradations affecting β-cyclodextrin and cetirizine component of the binary formulation: effectively suppressed
[2]; molar ratio CTZ:Additive 1:1
  Suspension homogeneity compared to control: better
[2]; molar ratio CTZ:Additive 1:2
  Suspension homogeneity compared to control: better
[2]; molar ratio CTZ:Additive 1:3
  Suspension homogeneity compared to control: better
[2]; molar ratio CTZ:Additive 1:4
  Suspension homogeneity compared to control: better

## [Na+].[OH-] [NaOH, Sodium hydroxide]
[1]; [4]
  BCD content in the filtrate: 115 mg/mL and 125 mg/mL
[2]; [4]
  Suspension homogeneity compared to control: no significant change

## O=C(O)C(O)C(O)C(=O)O (stereo not drawn) [Tartaric acid]
[1]; molar ratio CTZ:Additive 1:2
  BCD content in the filtrate: 130 mg/mL
[2]; molar ratio CTZ:Additive 1:2
  Suspension homogeneity compared to control: better

## OC[C@H]1O[C@@H]2O[C@H]3[C@H](O)[C@@H](O)[C@@H](O[C@H]4[C@H](O)[C@@H](O)[C@@H](O[C@H]5[C@H](O)[C@@H](O)[C@@H](O[C@H]6[C@H](O)[C@@H](O)[C@@H](O[C@H]7[C@H](O)[C@@H](O)[C@@H](O[C@H]8[C@H](O)[C@@H](O)[C@@H](O[C@H]1[C@H](O)[C@H]2O)O[C@@H]8CO)O[C@@H]7CO)O[C@@H]6CO)O[C@@H]5CO)O[C@@H]4CO)O[C@@H]3CO [un-complexed cyclodextrin, Beta-cyclodextrin]
[3]
  Effect on the stability of cetirizine: does not have any significant effect
